Values of other authors as cited in patent publication US20060110454A1 (priority 2004, published 2006).
Counter-ions that a name gives are not always drawn.

soluble in ethanol (ethanol): about 0.5%
soluble in methanol (methanol): about 8%
soluble in water (water): more than 20%
Structure (SMILES): CCCN[C@H]1CCc2nc(N)sc2C1 [Pramipexole dihydrochloride, (S)-2-amino-4,5,6,7-tetrahydro-6-(propylamino)benzothiazole dihydrochloride monohydrate]
